{"source": "patent US8529542B2", "about": "“Method and system for sustained-release of sclerosing agent” (UTI Limited Partnership, priority 2007, dated 2013)", "key": {"[1]": {"system": "rabbit model of pleurodesis", "experiment": "Direct daily dosing at low levels, rabbit model of pleurodesis", "type": "in vivo", "conditions": "for average pleurodesis score: score out of 8", "procedure": "These experiments were carried out in order to determine if low doses of sclerosing agents could result in successful pleurodesis when administered in a repeated fashion. Using daily doses of silver nitrate or doxycycline in decreasing doses starting at the lower limit of what has previously been reported to be effective, further decreases in dosing were administered utilizing single day, 5 day or 14 day regimens. Theoretically utilizing lower doses on a repeated basis may reduce the frequency and/or severity of side effects.\nAll experiments were carried out in a rabbit model of pleurodesis which has been extensively utilized in the field of pleurodesis in many centers around the world. As explained in further detail below, standard pleurodesis is score graded one to 8 and is used for assessment of the efficacy of pleurodesis, the number one representing a normal pleural space while 8 represents complete pleural symphysis. A score of 5 or higher is usually considered consistent with a successful pleurodesis.\nA total of 18 animals were treated with doxycycline at doses of 1 mg/kg, 5 mg/kg, or 10 mg/kg. Animals (n=2) in the 10 mg/kg group received only the single day injection, animals (n=2/group) in the 5 mg/kg range received either 1 day, 5 days or 14 days injection, and animals in the lowest dose range of 1 mg/kg (n=2/group) received repeated injections over 5 days or 14 days. The results were compared with the placebo groups (n=2/group) which were given saline injections over either 1, 5 or 14 days. All doses were administered after a daily drainage. At the end of the treatment period, the animals were euthanized and pleurodesis was scored according to the standard scoring system shown in FIG. 5.\nA total of 20 animals were treated with silver nitrate at dosing concentrations of 0.05%, 0.085%, 0.425% and 0.85%. Note that reported effective single dose injections of silver nitrate in this model range from 0.3% to 0.5%. A concentration of 0.25% was reported to be ineffective in one publication, but overall data is limited. The groups were assigned a treatment period of either a 1 day, 5 days or 14 days of repeated injections. A minimum of 2 animals were used for each of the 10 groups, and a further 2 animals were tested at the lowest dose range (0.05%). The results were compared with the placebo groups which were given saline injections over either 1, 5 or 14 days (n=2/group). All doses were administered after a daily drainage. At the end of the treatment period, the animals were euthanized and pleurodesis was scored according to the standard scoring table (shown in FIG. 5). Degree of pleural inflammation and fibrosis was also evaluated."}, "patients": {"system": "patients", "conditions": "cited from earlier work; for pain after intrapleural administration: literature reports"}, "[2]": {"system": "rabbit model of pleurodesis", "conditions": "concentration of 0.25%; cited from earlier work"}, "animal model": {"system": "animal model", "conditions": "cited from earlier work"}}}
{"molecule": "O=[N+]([O-])[O-].[Ag+]", "note": "[silver nitrate]", "values": [{"measurement": "average pleurodesis score", "setting": "[1]; 0.05% 14 days of repeated injections", "result": 6.5}, {"measurement": "pleurodesis scores", "setting": "[1]; 0.050% administered for 14 days", "result": "greater than or equal to 5"}, {"measurement": "pleurodesis scores", "setting": "[1]; 0.085% administered for 5 days", "result": "successful pleurodesis scores"}, {"measurement": "average pleurodesis score", "setting": "[1]; 0.085% repeated daily over 5 days", "result": 7.5}, {"measurement": "pleurodesis outcome", "setting": "[1]; 0.085% single dose", "result": "ineffective in achieving pleurodesis"}, {"measurement": "average pleurodesis score", "setting": "[1]; 0.425% single day injection", "result": 8}, {"measurement": "average pleurodesis score", "setting": "[1]; 0.85% single day injection", "result": 8}, {"measurement": "tolerability in human trial", "setting": "patients; 0.5% concentration (Paschoalini et al., 2005)", "result": "well tolerated"}, {"measurement": "clinical side effects", "setting": "patients; concentrations of up 10% (Wied et al.)", "result": "severe pain and side effects"}, {"measurement": "pain after intrapleural administration", "setting": "patients", "result": "significant"}, {"measurement": "pleurodesis outcome (one publication)", "setting": "[2]", "result": "ineffective"}, {"measurement": "systemic response (white blood cell count elevation, neutrophilia, serum interleukin-8 and VEGF levels)", "setting": "animal model; concentration of 0.1% vs 0.5% dose (Marchi et al., 2005)", "result": "less systemic response"}]}
{"molecule": "C[C@H]1c2cccc(O)c2C(=O)C2=C(O)[C@]3(O)C(=O)C(C(N)=O)=C(O)[C@@H](N(C)C)[C@@H]3[C@@H](O)[C@@H]21", "note": "[doxycycline]", "values": [{"measurement": "pleurodesis score", "setting": "[1]; 5 mg/kg over 14 days, score 1-8", "result": 5}, {"measurement": "mean pleurodesis score", "setting": "[1]; 10 mg/kg single dose, score 1-8", "result": 4.5}, {"measurement": "pain after intrapleural administration", "setting": "patients", "result": "significant"}]}
{"molecule": "CN(C)[C@@H]1C(O)=C(C(N)=O)C(=O)[C@@]2(O)C(O)=C3C(=O)c4c(O)cccc4[C@@](C)(O)[C@H]3C[C@@H]12", "note": "[tetracycline]", "values": [{"measurement": "pain after intrapleural administration", "setting": "patients", "result": "Intense pain"}]}
{"molecule": "CN(C)c1ccc(O)c2c1C[C@H]1C[C@H]3[C@H](N(C)C)C(O)=C(C(N)=O)C(=O)[C@@]3(O)C(O)=C1C2=O", "note": "[minocycline]", "values": [{"measurement": "mortality", "setting": "animal model; higher doses, intrapleural (Light et al., 1994)", "result": "excess mortality"}]}
